Reference: ChEMBL document CHEMBL5537166, “PROTACs Targeting BRM (SMARCA2) Afford Selective In Vivo Degradation over BRG1 (SMARCA4) and Are Active in BRG1 Mutant Xenograft Tumor Models” (J Med Chem, 2024)
Activity calls are given as the source filed them. No cut-off for these calls is given here.

Tests used:
[1] = system: NCI-H1944; test: Antiproliferative activity against BRM-dependent human NCI-H1944 cells assessed as growth inhibition incubated for 7 days by celltiter glo 2.0 assay; format: functional; settings: NCI-H1944, 168 h, time 7 day
[2] = system: Calu-6; test: Antiproliferative activity against human Calu-6 cells assessed as growth inhibition incubated for 7 days by celltiter glo 2.0 assay; format: functional; settings: Calu-6, 168 h, time 7 day
[3] = Plasma protein binding in mouse incubated for 15 mins by LC-MS/MS analysis; format: ADME, cell-free; settings: read-out: PPB (converted)
[4] = Clearance in mouse at 1 mg/kg, iv measured upto 60 mins by LC-MS/MS analysis; format: ADME, organism-based; settings: in vivo, 1 h
[5] = Half life in mouse at 1 mg/kg, iv measured upto 60 mins by LC-MS/MS analysis; format: ADME, organism-based; settings: in vivo
[6] = Drug concentration in mouse plasma measured for 24 hrs; format: ADME, cell-free
[7] = system: HCC2302; test: Antitumor activity against human BRM-dependent HCC2302 cells xenografted in CD-1 mouse assessed as reduction in tumor growth at 10 to 30 mg/kg, ip administered once daily for 11 days; format: functional, organism-based; settings: dose 10-30 mg/kg, time 11.0 day
[8] = Toxicity in CD-1 mouse xenografted with BRM-dependent human HCC2302 cells assessed as body weight loss at 10 to 30 mg/kg, ip administered once daily for 11 days; format: organism-based; settings: in vivo, 264 h, dose 10-30 mg/kg, time 11 day
[9] = Toxicity in CD-1 mouse xenografted with BRM-dependent human HCC2302 cells assessed as animal death at 10 to 30 mg/kg, ip measured at 9 to 13 days; format: organism-based; settings: in vivo, dose lower 10 mg/kg, time lower 9 day, dose upper 30 mg/kg, time upper 13 day
[10] = Toxicity in CD-1 mouse xenografted with BRM-dependent human HCC2302 cells assessed as animal survival at 10 mg/kg, ip measured at 15 days; format: organism-based; settings: in vivo, 360 h, time 15 day
[11] = Toxicity in CD-1 mouse xenografted with BRM-dependent human HCC2302 cells assessed as tolerability at 10 mg/kg, ip measured at 15 days; format: organism-based; settings: in vivo, 360 h, time 15 day
[12] = system: SW1573; test: Induction of PALS1 degradation in human SW1573 cells at 100 nM incubated for 8 hrs by proteomics analysis; format: cell-based
[13] = system: SW1573; test: Induction of PATJ degradation in human SW1573 cells at 100 nM incubated for 8 hrs by proteomics analysis; format: cell-based
[14] = biological target: MAP kinase-activated protein kinase 3 (Homo sapiens) (UniProt Q16644); test: Induction of MAPKAPK3 degradation in human SW1573 cells at 100 nM incubated for 8 hrs by proteomics analysis; format: cell-based
[15] = biological target: Urokinase-type plasminogen activator (Homo sapiens) (UniProt P00749); test: Induction of PLAU degradation in human SW1573 cells at 100 nM incubated for 8 hrs by proteomics analysis; format: cell-based
[16] = biological target: Protein polybromo-1 (Homo sapiens) (UniProt Q86U86); test: Induction of PBRM1 degradation in human SW1573 cells at 100 nM incubated for 8 hrs by proteomics analysis; format: cell-based
[17] = system: Mus musculus; test: In-vivo PROTAC activity at BRM/VHL in CD-1 mouse xenografted with human HCC2302 cells at 20 mg/kg, iv measured for 96 hrs; format: functional
[18] = system: Mus musculus; test: In-vivo PROTAC activity at BRM/VHL in CD-1 mouse xenografted with Murine stromal cell line at 20 mg/kg, iv measured for 96 hrs; format: functional
[19] = Drug concentration in mouse tumor at 20 mg/kg, ip measured for 96 hrs; format: ADME, organism-based, Neoplasm; settings: read-out: Ct
[20] = Clearance in CD-1 mouse at 10 mg/kg, iv measured for 24 hrs; format: ADME, organism-based; settings: in vivo
[21] = Clearance in CD-1 mouse at 30 mg/kg, iv measured for 24 hrs; format: ADME, organism-based; settings: in vivo
[22] = Volume of distribution in CD-1 mouse at 10 mg/kg, iv measured for 24 hrs; format: ADME, organism-based; settings: in vivo
[23] = Volume of distribution in CD-1 mouse at 30 mg/kg, iv measured for 24 hrs; format: ADME, organism-based; settings: in vivo
[24] = Half life in CD-1 mouse at 10 mg/kg, iv measured for 24 hrs; format: ADME, organism-based; settings: in vivo
[25] = Half life in CD-1 mouse at 30 mg/kg, iv measured for 24 hrs; format: ADME, organism-based; settings: in vivo
[26] = Initial plasma concentration in CD-1 mouse at 10 mg/kg, iv measured for 24 hrs; format: ADME, organism-based
[27] = Initial plasma concentration in CD-1 mouse at 30 mg/kg, iv measured for 24 hrs; format: ADME, organism-based
[28] = AUClast in CD-1 mouse at 10 mg/kg, iv measured for 24 hrs; format: ADME, organism-based; settings: in vivo
[29] = AUClast in CD-1 mouse at 30 mg/kg, iv measured for 24 hrs; format: ADME, organism-based; settings: in vivo
[30] = Toxicity in CD-1 mouse xenografted with BRM-dependent human HCC2302 cells assessed as body weight loss at 10 mg/kg, ip administered once daily for 7 days; format: organism-based; settings: in vivo, 168 h, time 7 day
[31] = Toxicity in CD-1 mouse xenografted with BRM-dependent human HCC2302 cells assessed as animal death at 10 mg/kg, ip administered once daily for 7 days; format: organism-based; settings: in vivo, 168 h, time 7 day
[32] = system: HCC2302; test: Antitumor activity against human BRM-dependent HCC2302 cells xenografted in CD-1 mouse assessed as tumor growth inhibition at 20 mg/kg, ip administered twice per week for 21 days; format: functional, organism-based; settings: time 21.0 day
[33] = Toxicity in CD-1 mouse xenografted with BRM-dependent human HCC2302 cells assessed as body weight loss at 20 mg/kg, ip administered twice per week for 21 days; format: organism-based; settings: in vivo, 504 h, time 21 day
[34] = system: HCC2302; test: Antitumor activity against human BRM-dependent HCC2302 cells xenografted in CD-1 mouse assessed as tumor growth inhibition at 10 mg/kg, iv administered twice per week for 21 days; format: functional, organism-based; settings: time 21.0 day
[35] = system: HCC2302; test: Antitumor activity against human BRM-dependent HCC2302 cells xenografted in CD-1 mouse at 30 mg/kg, iv administered twice per week for 11 days; format: functional, organism-based; settings: time 11.0 day
[36] = system: Mus musculus; test: In-vivo PROTAC activity at BRM/VHL in CD-1 mouse xenografted with human HCC2302 cells assessed as reduction in BRM level in tumor at 10 mg/kg, iv administered twice weekly for 7 times for 21 days and measured after 24 hrs post dose by Western blot analysis; format: functional; design: scale not given: the % may be the effect or the level left; settings: time 22 day
[37] = system: Mus musculus; test: In-vivo PROTAC activity at BRM/VHL in CD-1 mouse xenografted with human HCC2302 cells assessed as reduction in BRM level in tumor at 20 mg/kg, iv administered twice weekly for 7 times for 21 days and measured after 24 hrs post dose by Western blot analysis; format: functional; design: scale not given: the % may be the effect or the level left; settings: time 22 day
[38] = system: Mus musculus; test: In-vivo PROTAC activity at BRM/VHL in CD-1 mouse xenografted with human HCC2302 cells assessed as reduction in BRM level in tumor at 30 mg/kg, iv administered 7 times and measured after 96 hrs by Western blot analysis; format: functional; design: scale not given: the % may be the effect or the level left
[39] = system: Mus musculus; test: In-vivo PROTAC activity at BRG1 /VHL in CD-1 mouse xenografted with human HCC2302 cells assessed as reduction in BRG1 level in tumor at 10 mg/kg, iv administered twice weekly for 7 times for 21 days and measured after 24 hrs post dose by Western blot analysis; format: functional; design: scale not given: the % may be the effect or the level left; settings: time 22 day
[40] = system: Mus musculus; test: In-vivo PROTAC activity at BRG1 /VHL in CD-1 mouse xenografted with human HCC2302 cells assessed as reduction in BRG1 level in tumor at 20 mg/kg, iv administered twice weekly for 7 times for 21 days and measured after 24 hrs post dose by Western blot analysis; format: functional; design: scale not given: the % may be the effect or the level left; settings: time 22 day
[41] = system: Mus musculus; test: In-vivo PROTAC activity at BRG1 /VHL in CD-1 mouse xenografted with human HCC2302 cells assessed as reduction in BRG1 level in tumor at 30 mg/kg, iv administered 7 times and measured after 96 hrs by Western blot analysis; format: functional; design: scale not given: the % may be the effect or the level left
[42] = system: HCC2302; test: Antitumor activity against human BRM-dependent HCC2302 cells xenografted in CD-1 mouse assessed as suppression of KRT80 mRNA level at 10 mg/kg, iv administered twice weekly for 7 times for 21 days and measured after 24 hrs post dose; format: functional; settings: time 22 day
[43] = system: HCC2302; test: Antitumor activity against human BRM-dependent HCC2302 cells xenografted in CD-1 mouse assessed as suppression of KRT80 mRNA level at 20 mg/kg, iv administered twice weekly for 7 times for 21 days and measured after 24 hrs post dose; format: functional; settings: time 22 day
[44] = system: HCC2302; test: Antitumor activity against human BRM-dependent HCC2302 cells xenografted in CD-1 mouse assessed as suppression of KRT80 mRNA level at 30 mg/kg, iv administered 7 times and measured after 96 hrs; format: functional
[45] = system: HCC2302; test: Antitumor activity against human BRM-dependent HCC2302 cells xenografted in CD-1 mouse assessed as suppression of PLAU mRNA level at 10 mg/kg, iv administered twice weekly for 7 times for 21 days and measured after 24 hrs post dose; format: functional; settings: time 22 day
[46] = system: HCC2302; test: Antitumor activity against human BRM-dependent HCC2302 cells xenografted in CD-1 mouse assessed as suppression of PLAU mRNA level at 20 mg/kg, iv administered twice weekly for 7 times for 21 days and measured after 24 hrs post dose; format: functional; settings: time 22 day
[47] = system: HCC2302; test: Antitumor activity against human BRM-dependent HCC2302 cells xenografted in CD-1 mouse assessed as suppression of PLAU mRNA level at 30 mg/kg, iv administered 7 times and measured after 96 hrs; format: functional
[48] = system: HCC2302; test: Antitumor activity against human BRM-dependent HCC2302 cells xenografted in CD-1 mouse assessed as tumor growth inhibition at 10 mg/kg, iv administered twice weekly for 7 times for 21 days and measured after 24 hrs post dose; format: functional; settings: HCC2302, 528 h, time 22 day, read-out: TGI
[49] = system: HCC2302; test: Antitumor activity against human BRM-dependent HCC2302 cells xenografted in CD-1 mouse assessed as tumor growth inhibition at 20 mg/kg, iv administered twice weekly for 7 times for 21 days and measured after 24 hrs post dose; format: functional; settings: HCC2302, 528 h, time 22 day, read-out: TGI
[50] = system: HCC2302; test: Antitumor activity against human BRM-dependent HCC2302 cells xenografted in CD-1 mouse assessed as tumor growth inhibition at 30 mg/kg, iv administered 7 times and measured after 96 hrs; format: functional; settings: read-out: TGI

Chain of Protein polybromo-1 (Homo sapiens) (Q86U86 whole entry): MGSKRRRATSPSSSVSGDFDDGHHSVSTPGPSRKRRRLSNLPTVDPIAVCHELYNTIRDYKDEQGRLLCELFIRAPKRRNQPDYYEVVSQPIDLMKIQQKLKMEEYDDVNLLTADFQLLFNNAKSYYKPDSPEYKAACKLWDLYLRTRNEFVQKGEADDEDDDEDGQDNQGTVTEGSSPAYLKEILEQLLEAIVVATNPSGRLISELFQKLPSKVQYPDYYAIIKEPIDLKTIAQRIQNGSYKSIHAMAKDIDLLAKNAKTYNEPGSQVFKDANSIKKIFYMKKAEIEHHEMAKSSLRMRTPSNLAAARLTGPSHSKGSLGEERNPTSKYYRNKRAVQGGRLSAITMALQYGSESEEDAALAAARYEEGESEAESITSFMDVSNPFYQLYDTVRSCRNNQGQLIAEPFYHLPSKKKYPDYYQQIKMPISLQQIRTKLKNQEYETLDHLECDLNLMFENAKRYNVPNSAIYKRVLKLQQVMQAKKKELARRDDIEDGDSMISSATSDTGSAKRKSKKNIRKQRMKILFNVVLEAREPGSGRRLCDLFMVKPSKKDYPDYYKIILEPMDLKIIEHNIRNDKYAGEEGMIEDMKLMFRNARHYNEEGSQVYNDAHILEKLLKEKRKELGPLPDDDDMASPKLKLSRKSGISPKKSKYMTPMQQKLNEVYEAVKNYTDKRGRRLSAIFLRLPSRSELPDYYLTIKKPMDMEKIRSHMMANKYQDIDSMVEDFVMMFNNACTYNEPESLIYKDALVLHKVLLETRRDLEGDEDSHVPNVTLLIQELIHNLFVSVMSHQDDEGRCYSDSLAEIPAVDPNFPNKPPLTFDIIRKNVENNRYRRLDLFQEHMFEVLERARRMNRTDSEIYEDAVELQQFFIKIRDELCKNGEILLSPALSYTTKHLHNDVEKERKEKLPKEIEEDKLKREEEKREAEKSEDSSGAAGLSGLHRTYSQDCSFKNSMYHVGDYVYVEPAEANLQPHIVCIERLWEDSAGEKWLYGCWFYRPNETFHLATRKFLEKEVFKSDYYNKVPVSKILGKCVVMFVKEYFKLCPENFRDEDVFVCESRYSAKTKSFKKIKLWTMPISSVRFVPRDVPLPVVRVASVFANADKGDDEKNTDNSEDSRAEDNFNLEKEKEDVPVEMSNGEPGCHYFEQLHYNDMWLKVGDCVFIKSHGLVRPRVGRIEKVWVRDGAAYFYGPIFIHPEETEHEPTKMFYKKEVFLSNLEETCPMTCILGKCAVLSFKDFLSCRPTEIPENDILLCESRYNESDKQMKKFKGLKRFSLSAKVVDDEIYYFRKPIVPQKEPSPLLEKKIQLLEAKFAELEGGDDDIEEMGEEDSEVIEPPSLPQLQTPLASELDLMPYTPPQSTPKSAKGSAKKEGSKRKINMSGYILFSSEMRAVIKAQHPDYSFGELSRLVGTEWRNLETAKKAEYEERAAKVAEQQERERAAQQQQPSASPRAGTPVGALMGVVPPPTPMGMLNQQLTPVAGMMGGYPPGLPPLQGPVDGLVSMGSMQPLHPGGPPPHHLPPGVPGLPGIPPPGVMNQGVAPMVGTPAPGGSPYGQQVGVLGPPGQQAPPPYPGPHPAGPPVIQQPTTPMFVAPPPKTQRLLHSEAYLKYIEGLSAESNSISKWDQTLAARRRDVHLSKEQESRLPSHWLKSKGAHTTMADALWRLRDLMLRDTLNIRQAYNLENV
Chain of MAP kinase-activated protein kinase 3 (Homo sapiens) (Q16644 whole entry, looked up): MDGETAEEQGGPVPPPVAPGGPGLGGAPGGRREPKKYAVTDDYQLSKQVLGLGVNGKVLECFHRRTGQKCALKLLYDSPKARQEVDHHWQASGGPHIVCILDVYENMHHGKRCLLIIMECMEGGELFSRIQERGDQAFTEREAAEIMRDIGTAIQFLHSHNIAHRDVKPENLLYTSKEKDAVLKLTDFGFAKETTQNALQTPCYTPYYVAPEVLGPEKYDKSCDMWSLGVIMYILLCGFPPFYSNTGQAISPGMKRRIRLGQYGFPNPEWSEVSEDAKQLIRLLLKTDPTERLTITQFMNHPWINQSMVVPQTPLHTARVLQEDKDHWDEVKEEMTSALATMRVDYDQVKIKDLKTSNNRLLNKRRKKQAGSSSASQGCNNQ

Compound: Cc1ncsc1-c1ccc([C@H](C)NC(=O)[C@@H]2C[C@@H](O)CN2C(=O)[C@@H](c2cc(OCCN3CCC(O[C@H]4C[C@H](Oc5cc(N6C7CCC6CN(c6cc(-c8ccccc8O)nnc6N)C7)ccn5)C4)CC3)no2)C(C)C)cc1
- GI50 [1]: 0.64 nM
- GI50 [2]: 24 nM
- fraction unbound at 0.25 h [3]: 0.027
- clearance [4]: 22 mL/min/kg
- half-life [5]: 2.6 h
- concentration at 24 h [6]: 26 nM
- Activity [7]: Active
- Activity [8]: Toxic
- Activity [9]: Toxic
- Activity [10]: Non-Toxic
- Activity [11]: Non-Toxic
- Activity [12]: Active
- Activity [13]: Active
- Activity [14]: Active
- Activity [15]: Active
- Activity [16]: Active
- Activity [17]: 64%
- Activity [18]: 4%
- concentration at 96 h [19]: 158 ng/g

Compound: Cc1ncsc1-c1ccc([C@H](C)NC(=O)[C@@H]2C[C@@H](O)CN2C(=O)[C@@H](c2cc(N3CCC(CN4CCC(O[C@H]5C[C@H](Oc6cc(N7C8CCC7CN(c7cc(-c9ccccc9O)nnc7N)C8)ccn6)C5)CC4)CC3)no2)C(C)C)cc1
- GI50 [1]: 0.58 nM
- GI50 [2]: 6.5 nM
- fraction unbound at 0.25 h [3]: 0.048
- clearance [4]: 9.6 mL/min/kg
- half-life [5]: 16 h
- concentration at 24 h [6]: 71 nM
- clearance [20]: 16 mL/min/kg
- clearance [21]: 15 mL/min/kg
- Vd [22]: 6.3 L/kg
- Vd [23]: 8.7 L/kg
- half-life [24]: 6.6 h
- half-life [25]: 8.9 h
- C0 at 24 h [26]: 12600 ng/mL
- C0 at 24 h [27]: 58000 ng/mL
- AUC(0-t) at 24 h [28]: 10200 ng·h/mL
- AUC(0-t) at 24 h [29]: 30800 ng·h/mL
- Activity [30]: Non-Toxic
- Activity [31]: Non-Toxic
- Activity [17]: 82%
- Activity [18]: 22%
- concentration at 96 h [19]: 483 ng/g
- TGI [32]: Active
- Activity [33]: Non-Toxic
- TGI [34]: inactive
- Activity [35]: Active
- Activity [36]: 81%
- Activity [37]: 99%
- Activity [38]: 97%
- Activity [39]: 30%
- Activity [40]: 47%
- Activity [41]: 84%
- Activity [42]: 25%
- Activity [43]: 71%
- Activity [44]: 72%
- Activity [45]: 91%
- Activity [46]: 98%
- Activity [47]: 97%
- inhibition in vivo at 10 mg/kg [48]: 1%
- inhibition in vivo at 20 mg/kg [49]: 62%
- inhibition in vivo at 30 mg/kg [50]: > 65%
